Biological target: T1, SirT1 (Homo sapiens, UniProt Q96EB6)
T1 sequence (Q96EB6 1-747): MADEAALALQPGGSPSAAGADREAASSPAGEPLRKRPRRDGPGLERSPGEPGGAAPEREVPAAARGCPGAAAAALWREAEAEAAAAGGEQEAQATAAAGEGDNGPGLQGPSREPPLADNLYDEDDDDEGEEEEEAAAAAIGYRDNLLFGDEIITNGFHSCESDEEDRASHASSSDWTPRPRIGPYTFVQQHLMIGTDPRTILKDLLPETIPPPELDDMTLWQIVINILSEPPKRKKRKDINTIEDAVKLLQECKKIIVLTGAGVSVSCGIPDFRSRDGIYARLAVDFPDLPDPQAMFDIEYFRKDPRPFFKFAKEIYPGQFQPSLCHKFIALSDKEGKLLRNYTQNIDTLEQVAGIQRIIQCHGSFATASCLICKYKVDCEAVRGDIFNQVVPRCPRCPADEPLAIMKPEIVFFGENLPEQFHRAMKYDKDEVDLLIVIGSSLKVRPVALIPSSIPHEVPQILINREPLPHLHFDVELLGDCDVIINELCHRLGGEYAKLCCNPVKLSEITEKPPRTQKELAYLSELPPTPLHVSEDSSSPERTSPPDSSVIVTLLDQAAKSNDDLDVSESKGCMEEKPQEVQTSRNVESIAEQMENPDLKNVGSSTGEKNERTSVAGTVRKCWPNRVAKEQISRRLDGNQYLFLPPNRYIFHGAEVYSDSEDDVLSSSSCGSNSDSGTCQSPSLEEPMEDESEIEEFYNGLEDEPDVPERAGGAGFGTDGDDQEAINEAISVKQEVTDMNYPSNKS
Test: SirT1 enzymatic assay, p53-382 Fluor-de-Lys (FdL)
Assay type: biochemical
Settings: for IC50: Table 1, exemplary compounds
Text: The ability of a compound to inhibit SIRT1 can be evaluated in many ways. In some embodiments, interaction with, e.g., binding of, SIRT1 can be assayed in vitro. The reaction mixture can include a SIRT1 co-factor such as NAD and/or a NAD analog. In other embodiments, the ability of the compound to inhibit an enzymatic function, e.g., deacetylase activity of SIRT1, can be assayed in vitro. Assays can include determining the IC50 of the compound.
An exemplary assay method includes a multi-well format of the SirT1 enzymatic assay that is based on the commercial “Fluor-de-Lys” assay principle by Biomol, which is fluorogenic (www.biomol.com/store/Product_Data_PDFs/ak500.pdf). In this assay, deacetylation of the s-amino function of a lysyl residue is coupled to a fluorogenic development step that is dependent on the unblocked ε-amino functionality and generates fluorescent aminomethylcoumarin. Fluorescence can be read on a commercial […]. Standard enzymological analyses can be used to determine Ki.

IC50 [µM] | SMILES | activity against the SirT1 enzyme compared with the enantiomer (isomer with negative optical rotation vs enantiomer with positive optical rotation)
– | NC(=O)C1CCCc2c1[nH]c1ccc(Cl)cc21 (single isomer, unassigned) [isomer of compound 4 having a negative optical rotation, 6-Chloro-2,3,4,9-tetrahydro-1H-carbazole-1-carboxylic acid amide] | greater activity against the SirT1 enzyme
> 10 | O=C(O)C1CCCc2c1[nH]c1ccc(O)cc21 (stereo not shown) [Compound 54, 6-hydroxy-2,3,4,9-tetrahydro-1H-carbazole-1-carboxylic acid] | –
> 10 | NC(=O)C1NCCc2c1[nH]c1ccc(Cl)cc21 (stereo not shown) [Compound 56, 6-chloro-2,3,4,9-tetrahydro-1H-pyrido[3,4-b]indole-1-carboxamide] | –
> 10 | CC(=O)N1CCc2c([nH]c3ccc(Cl)cc23)C1C(N)=O (stereo not shown) [Compound 58, 2-acetyl-6-chloro-2,3,4,9-tetrahydro-1H-pyrido[3,4-b]indole-1-carboxamide] | –

From US20090022694A1, “SIRT1 INHIBITION” (priority 2005, published 2009)
